Data as given in ChEMBL document CHEMBL4020786, “Discovery of pyrazolo[1,5-a]pyrimidine-3-carbonitrile derivatives as a new class of histone lysine demethylase 4D (KDM4D) inhibitors” (Bioorg Med Chem Lett, 2017).

Assays:
[1] = target: T1, Lysine-specific demethylase 4D (Homo sapiens) (UniProt Q6B0I6); test: Inhibition of KDM4D (unknown origin) at 10 uM using biotinylated H3 derived peptide as substrate preincubated for 15 mins followed by substrate addition measured after 1 hr by AlphaLISA method
T1 sequence (whole entry): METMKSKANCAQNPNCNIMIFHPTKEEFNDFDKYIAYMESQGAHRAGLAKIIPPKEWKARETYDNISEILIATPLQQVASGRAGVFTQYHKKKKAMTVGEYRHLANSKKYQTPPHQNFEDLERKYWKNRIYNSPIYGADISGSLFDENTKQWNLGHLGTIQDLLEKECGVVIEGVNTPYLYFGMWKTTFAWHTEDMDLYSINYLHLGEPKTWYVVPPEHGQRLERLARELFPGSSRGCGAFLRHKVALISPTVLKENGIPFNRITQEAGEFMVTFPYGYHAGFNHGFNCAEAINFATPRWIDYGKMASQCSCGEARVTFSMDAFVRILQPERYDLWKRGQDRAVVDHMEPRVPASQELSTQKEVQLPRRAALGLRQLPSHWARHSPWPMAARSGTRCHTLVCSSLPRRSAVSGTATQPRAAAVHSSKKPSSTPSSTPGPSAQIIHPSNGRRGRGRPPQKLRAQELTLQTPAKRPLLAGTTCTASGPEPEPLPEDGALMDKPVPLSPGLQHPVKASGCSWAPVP

[2] = target: T2, Lysine-specific demethylase 4D (Homo sapiens, UniProt Q6B0I6); test: Inhibition of KDM4D (unknown origin) using biotinylated H3 derived peptide as substrate preincubated for 15 mins followed by substrate addition measured after 1 hr by AlphaLISA method
T2 sequence (Q6B0I6 whole entry): T1 sequence (whole entry)

[3] = target: Lysine-specific demethylase 3B (Homo sapiens) (UniProt Q7LBC6); test: Inhibition of KDM3B (unknown origin) at 10 uM
[4] = target: Lysine-specific demethylase 5A (Homo sapiens) (UniProt P29375); test: Inhibition of KDM5A (unknown origin) at 10 uM
[5] = target: T3, Lysine-specific demethylase 2B (Homo sapiens) (UniProt Q8NHM5); test: Inhibition of KDM2B (unknown origin) at 10 uM
T3 sequence (whole entry): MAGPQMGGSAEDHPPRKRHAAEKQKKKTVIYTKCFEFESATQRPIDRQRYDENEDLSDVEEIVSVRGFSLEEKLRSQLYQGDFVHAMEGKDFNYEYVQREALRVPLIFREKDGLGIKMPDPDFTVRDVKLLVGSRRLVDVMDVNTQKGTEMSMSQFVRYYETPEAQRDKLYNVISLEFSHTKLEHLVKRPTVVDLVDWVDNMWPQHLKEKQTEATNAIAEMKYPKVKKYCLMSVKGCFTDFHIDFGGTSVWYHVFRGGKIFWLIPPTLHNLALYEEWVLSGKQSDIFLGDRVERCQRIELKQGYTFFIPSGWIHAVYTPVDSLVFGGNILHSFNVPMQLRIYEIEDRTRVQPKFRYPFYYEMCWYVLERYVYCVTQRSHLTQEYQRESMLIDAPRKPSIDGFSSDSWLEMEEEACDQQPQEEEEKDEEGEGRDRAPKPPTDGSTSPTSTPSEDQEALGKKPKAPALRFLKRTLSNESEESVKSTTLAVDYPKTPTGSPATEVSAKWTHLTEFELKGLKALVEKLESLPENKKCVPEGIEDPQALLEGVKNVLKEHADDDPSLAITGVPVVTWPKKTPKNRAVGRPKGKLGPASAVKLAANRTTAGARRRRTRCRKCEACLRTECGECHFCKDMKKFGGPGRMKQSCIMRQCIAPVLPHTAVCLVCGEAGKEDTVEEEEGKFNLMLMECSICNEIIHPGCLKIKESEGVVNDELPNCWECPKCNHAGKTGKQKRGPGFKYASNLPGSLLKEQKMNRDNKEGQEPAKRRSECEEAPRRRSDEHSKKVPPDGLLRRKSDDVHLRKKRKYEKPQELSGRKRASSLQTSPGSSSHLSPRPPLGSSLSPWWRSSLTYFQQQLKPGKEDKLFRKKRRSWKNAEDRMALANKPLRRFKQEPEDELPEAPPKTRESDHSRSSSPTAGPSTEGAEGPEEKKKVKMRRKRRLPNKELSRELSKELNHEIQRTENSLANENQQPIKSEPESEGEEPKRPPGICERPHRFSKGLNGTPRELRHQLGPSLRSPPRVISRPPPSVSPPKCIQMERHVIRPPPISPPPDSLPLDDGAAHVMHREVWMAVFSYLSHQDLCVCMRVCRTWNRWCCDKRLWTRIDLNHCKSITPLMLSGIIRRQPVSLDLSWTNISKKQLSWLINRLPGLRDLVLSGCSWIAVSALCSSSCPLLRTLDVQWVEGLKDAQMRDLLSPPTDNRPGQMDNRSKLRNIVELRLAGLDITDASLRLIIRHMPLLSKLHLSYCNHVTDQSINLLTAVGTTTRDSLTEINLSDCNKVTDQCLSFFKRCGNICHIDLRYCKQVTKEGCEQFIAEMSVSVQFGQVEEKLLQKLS

Chain of Lysine-specific demethylase 5A (Homo sapiens) (P29375 whole entry): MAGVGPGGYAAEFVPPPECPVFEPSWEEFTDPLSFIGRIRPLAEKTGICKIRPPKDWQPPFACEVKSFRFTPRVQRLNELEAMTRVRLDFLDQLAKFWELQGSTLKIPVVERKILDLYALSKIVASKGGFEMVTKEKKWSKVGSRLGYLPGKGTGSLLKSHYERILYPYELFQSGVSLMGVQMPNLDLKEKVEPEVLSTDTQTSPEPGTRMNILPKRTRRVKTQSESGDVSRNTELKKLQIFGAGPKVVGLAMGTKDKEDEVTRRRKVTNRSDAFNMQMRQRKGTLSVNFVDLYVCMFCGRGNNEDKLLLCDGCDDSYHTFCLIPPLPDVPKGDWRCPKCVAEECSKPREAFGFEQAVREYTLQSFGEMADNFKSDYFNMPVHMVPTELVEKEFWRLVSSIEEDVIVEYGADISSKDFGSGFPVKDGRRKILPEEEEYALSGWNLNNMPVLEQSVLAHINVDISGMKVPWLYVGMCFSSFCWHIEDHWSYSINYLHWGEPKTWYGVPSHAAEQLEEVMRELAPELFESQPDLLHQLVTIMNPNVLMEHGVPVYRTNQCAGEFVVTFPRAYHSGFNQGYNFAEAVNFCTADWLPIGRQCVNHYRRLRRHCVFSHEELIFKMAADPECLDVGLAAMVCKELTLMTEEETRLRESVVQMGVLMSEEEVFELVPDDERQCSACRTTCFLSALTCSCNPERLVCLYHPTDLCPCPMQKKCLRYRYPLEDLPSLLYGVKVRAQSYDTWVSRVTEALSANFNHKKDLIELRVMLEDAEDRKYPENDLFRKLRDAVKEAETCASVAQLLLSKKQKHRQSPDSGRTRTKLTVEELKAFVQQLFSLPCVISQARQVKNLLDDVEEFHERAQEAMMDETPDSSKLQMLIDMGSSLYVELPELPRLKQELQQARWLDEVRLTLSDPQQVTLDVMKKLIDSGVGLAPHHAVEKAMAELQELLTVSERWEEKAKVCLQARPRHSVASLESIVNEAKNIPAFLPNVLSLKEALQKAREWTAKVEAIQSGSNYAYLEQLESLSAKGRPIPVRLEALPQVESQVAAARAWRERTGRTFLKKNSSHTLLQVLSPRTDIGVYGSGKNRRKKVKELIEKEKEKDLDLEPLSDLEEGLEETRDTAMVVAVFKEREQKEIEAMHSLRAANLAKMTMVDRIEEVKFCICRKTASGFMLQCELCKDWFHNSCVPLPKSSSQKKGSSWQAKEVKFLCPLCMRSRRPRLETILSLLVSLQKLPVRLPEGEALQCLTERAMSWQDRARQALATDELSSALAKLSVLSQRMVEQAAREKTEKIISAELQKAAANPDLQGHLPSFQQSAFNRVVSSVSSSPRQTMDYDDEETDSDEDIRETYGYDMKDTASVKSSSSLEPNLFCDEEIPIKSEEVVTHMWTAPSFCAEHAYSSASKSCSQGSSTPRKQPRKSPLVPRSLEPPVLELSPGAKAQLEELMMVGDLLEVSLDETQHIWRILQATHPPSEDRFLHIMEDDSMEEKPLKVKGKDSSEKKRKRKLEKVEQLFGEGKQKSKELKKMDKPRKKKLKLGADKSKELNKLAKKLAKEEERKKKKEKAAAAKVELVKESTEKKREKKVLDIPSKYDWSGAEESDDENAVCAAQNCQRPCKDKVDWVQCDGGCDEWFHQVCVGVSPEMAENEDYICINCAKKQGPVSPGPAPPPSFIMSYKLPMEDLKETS
Chain of Lysine-specific demethylase 3B (Homo sapiens) (Q7LBC6 whole entry): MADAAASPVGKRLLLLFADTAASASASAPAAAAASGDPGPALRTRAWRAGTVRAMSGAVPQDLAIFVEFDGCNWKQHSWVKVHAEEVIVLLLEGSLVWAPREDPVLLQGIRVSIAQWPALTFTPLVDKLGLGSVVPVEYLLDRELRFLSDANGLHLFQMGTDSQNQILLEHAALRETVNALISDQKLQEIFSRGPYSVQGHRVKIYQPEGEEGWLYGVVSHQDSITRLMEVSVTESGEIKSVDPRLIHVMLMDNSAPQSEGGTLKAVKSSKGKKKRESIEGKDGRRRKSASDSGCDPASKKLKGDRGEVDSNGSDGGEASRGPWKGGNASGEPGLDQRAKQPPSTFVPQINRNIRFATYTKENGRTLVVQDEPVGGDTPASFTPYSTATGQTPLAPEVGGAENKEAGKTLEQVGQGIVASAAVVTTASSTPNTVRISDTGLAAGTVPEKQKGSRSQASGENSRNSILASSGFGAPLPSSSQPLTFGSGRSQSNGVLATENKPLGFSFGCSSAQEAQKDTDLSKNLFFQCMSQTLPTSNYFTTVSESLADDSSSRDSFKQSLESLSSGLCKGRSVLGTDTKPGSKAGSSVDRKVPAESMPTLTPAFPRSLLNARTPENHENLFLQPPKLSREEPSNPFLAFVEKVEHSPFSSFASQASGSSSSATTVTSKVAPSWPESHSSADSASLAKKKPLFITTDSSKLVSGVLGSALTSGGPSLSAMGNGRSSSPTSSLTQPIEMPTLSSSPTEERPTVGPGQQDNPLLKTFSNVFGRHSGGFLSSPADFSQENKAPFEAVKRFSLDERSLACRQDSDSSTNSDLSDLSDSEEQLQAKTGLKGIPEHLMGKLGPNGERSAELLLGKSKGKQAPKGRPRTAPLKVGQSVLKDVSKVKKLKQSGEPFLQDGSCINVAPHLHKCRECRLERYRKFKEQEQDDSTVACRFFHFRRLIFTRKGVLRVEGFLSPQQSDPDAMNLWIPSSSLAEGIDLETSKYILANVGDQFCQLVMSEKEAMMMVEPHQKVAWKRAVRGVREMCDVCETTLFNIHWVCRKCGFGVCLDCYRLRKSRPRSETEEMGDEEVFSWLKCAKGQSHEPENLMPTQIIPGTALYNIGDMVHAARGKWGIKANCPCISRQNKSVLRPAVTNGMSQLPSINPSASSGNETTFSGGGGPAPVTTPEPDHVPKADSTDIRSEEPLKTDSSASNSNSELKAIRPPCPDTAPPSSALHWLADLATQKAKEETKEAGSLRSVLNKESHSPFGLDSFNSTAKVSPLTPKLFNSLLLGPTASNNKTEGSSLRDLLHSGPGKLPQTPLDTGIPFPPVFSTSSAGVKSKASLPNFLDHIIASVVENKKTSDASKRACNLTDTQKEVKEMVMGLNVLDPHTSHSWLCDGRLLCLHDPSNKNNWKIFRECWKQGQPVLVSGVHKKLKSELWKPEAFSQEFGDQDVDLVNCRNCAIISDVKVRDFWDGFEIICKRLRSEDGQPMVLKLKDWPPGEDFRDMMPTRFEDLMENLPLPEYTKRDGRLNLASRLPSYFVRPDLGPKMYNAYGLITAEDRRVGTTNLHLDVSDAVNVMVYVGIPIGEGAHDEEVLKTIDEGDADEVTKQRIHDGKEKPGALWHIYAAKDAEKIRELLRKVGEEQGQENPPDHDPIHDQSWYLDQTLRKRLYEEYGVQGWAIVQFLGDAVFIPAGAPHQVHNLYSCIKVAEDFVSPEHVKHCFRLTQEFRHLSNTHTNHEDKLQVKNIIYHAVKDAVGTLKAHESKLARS

Row | Structure (SMILES) | inhibition [1] | other results
1 | N#Cc1c(-c2ccccc2)nn2c1nc(O)c1cccnc12 | 23.6% | –
2 | N#Cc1cnn2c1nc(O)c1ccc(N)cc12 | -2.25% | –
3 | N#Cc1cnn2c1nc(O)c1ccc(Cl)nc12 | 58.7% | –
4 | N#Cc1cnn2c1nc(O)c1ccncc12 | 68.1% | –
5 | N#Cc1cnn2c1nc(O)c1ncccc12 | 5.26% | –
6 | N#Cc1cnn2c1ncc1cccnc12 | 85.1% | IC50 [2]: 4030 nM
7 | N#Cc1cnn2c1nc(O)c1cccnc12 | 20.1% | –
8 | Cc1nn2c(nc(O)c3cccnc32)c1C#N | 88.8% | IC50 [2]: 410 nM
9 | N#Cc1cnn2c1nc(O)c1cc([N+](=O)[O-])cnc12 | 1.91% | –
10 | N#Cc1cnn2c1nc(O)c1cccc([N+](=O)[O-])c12 | 73.3% | IC50 [2]: 3140 nM; inhibition [3]: -2.18%; inhibition [4]: 23.1%; inhibition [5]: -4.85%
11 | CCc1nn2c(nc(O)c3cccnc32)c1C#N | 78.1% | IC50 [2]: 1850 nM
12 | N#Cc1cnn2c1nc(O)c1cccc(N)c12 | 62.3% | –
13 | N#Cc1cnn2c1nc(O)c1ccc(C(F)(F)F)cc12 | -0.35% | –
14 | CS(=O)(=O)c1ccc2c(O)nc3c(C#N)cnn3c2c1 | 9.63% | –
15 | N#Cc1cnn2c1nc(O)c1cnccc12 | 16.4% | –
16 | Cc1ccc2c(O)nc3c(C#N)cnn3c2n1 | 21.9% | –
17 | N#Cc1cnn2c1nc(O)c1ccc([N+](=O)[O-])cc12 | 4.75% | –
18 | N#Cc1cnn2c1nc(O)c1ccc(C(F)(F)F)nc12 | 10.4% | –
19 | Cc1nc2c(C#N)cnn2c2ncccc12 | 22.9% | –
20 | N#Cc1cnn2c1nc(O)c1cccc(C(F)(F)F)c12 | 8.63% | –
21 | Oc1ccccc1-c1ccn(-c2nccc(N3CCOCC3)n2)n1 | 99.7% | inhibition [3]: 90.7%; inhibition [4]: 73.6%; inhibition [5]: 84.1%
22 | N#Cc1cnn2c1nc(O)c1ccccc12 | 9.03% | –
